The values below come from PubChem BioAssay (NCI).

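Values below derive from 48-hour exposures of cells grown in 96-well plates, with endpoints linearly interpolated between the two concentrations bracketing the appropriate inhibition level. GI50 = concentration required for 50% inhibition of growth. TGI: total growth inhibition.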 Some results are limits rather than exact numbers.

Among the test systems are EKVX NSCLC; HCC-2998 colon; MALME-3M melanoma; NCI-H23 lung; OVCAR-5 ovarian; SF-268 CNS; SK-MEL-2 melanoma; TK-10 renal; UACC-257 melanoma; COLO 205 colon.
Common to all, as to assay: growth of human tumour cells (NCI), 48 h

Consider `COc1cc2ccc1-c1cc(ccc1O)CC1c3cc4c(cc3CCN1C)Oc1c(OC)cc3c(c1O4)C(C2)N(C)CC3` (stereo not given), for which the TGI with EKVX NSCLC stood at 4.57 µM; in the test on HCC-2998 colon, 3.06 µM; with MALME-3M melanoma, 3.48 µM; in the test on NCI-H23 lung, 3.9 µM; in the test with OVCAR-5 ovarian it was 8.86 µM; in the test on SF-268 CNS, 3.52 µM. Further, the TGI in the test with SK-MEL-2 melanoma is 3.38 µM; in the test with TK-10 renal it was 24.7 µM; with UACC-257 melanoma, 3.23 µM.

On to `Oc1cc(O)cc(/C=C/c2ccc(O)c(O)c2)c1`, for which the TGI in the test on COLO 205 colon was above 62.1 µM; with EKVX NSCLC, above 100 µM; with HCC-2998 colon, 34.4 µM; in the test on MALME-3M melanoma, above 100 µM; in the test with NCI-H23 lung, 40.2 µM; in the test with OVCAR-5 ovarian, 20.7 µM. Moreover, the TGI with SF-268 CNS is 56.3 µM; in the test on SK-MEL-2 melanoma it was 16 µM; in the test on UACC-257 melanoma, above 100 µM.

In the case of `CN(C)c1ccc(C2CC(=O)C(C#N)=C(c3ccccc3)NN2C)cc1` (stereo not given), the TGI in the test with HCC-2998 colon was above 100 µM; in the test on MALME-3M melanoma, above 100 µM; in the test with NCI-H23 lung, above 100 µM; with OVCAR-5 ovarian it was above 100 µM; in the test on SF-268 CNS it was above 100 µM; in the test with SK-MEL-2 melanoma, 57.2 µM. Moreover, the TGI in the test on TK-10 renal and in the test with UACC-257 melanoma was above 100 µM throughout.

For the molecule `CN(C)c1ccc2nc3c(C(=O)O)cc(=O)c(O)c-3oc2c1`, the TGI with COLO 205 colon was 60 µM; with EKVX NSCLC, 81 µM; in the test with MALME-3M melanoma, 31.7 µM; with NCI-H23 lung it was 33.6 µM; in the test with OVCAR-5 ovarian, above 100 µM; in the test on SF-268 CNS it was above 100 µM. For the same molecule, the results for the TGI in the test with SK-MEL-2 melanoma, with TK-10 renal and in the test on UACC-257 melanoma were 40.2 µM, 47.5 µM and 32.3 µM, respectively.

Take `C[n+]1cccc(/C=C/c2ccc3cccc(O)c3n2)c1`: the TGI in the test on COLO 205 colon is above 100 µM; in the test with EKVX NSCLC, above 100 µM; in the test on HCC-2998 colon it was above 100 µM; in the test on MALME-3M melanoma, 93.5 µM; in the test with NCI-H23 lung it was above 100 µM; in the test on OVCAR-5 ovarian, above 100 µM. Besides, the TGI in the test on SF-268 CNS, in the test with SK-MEL-2 melanoma, with TK-10 renal and with UACC-257 melanoma was above 100 µM in each case.

In the case of `CC(C)CNc1nc(N)[nH]c(=O)c1NC=O`, the TGI in the test with COLO 205 colon, with EKVX NSCLC, in the test with HCC-2998 colon, in the test with MALME-3M melanoma, in the test with NCI-H23 lung and in the test on OVCAR-5 ovarian was above 100 µM throughout. Besides, the TGI in the test with SF-268 CNS, with SK-MEL-2 melanoma, with TK-10 renal and in the test with UACC-257 melanoma was above 100 µM throughout.

Turning to `N=C(N)c1ccc(-c2ccc(-c3ccc(Cl)cn3)s2)cc1`, the GI50 was 1.68 µM in the test on MALME-3M melanoma, 1.58 µM with OVCAR-5 ovarian, 9.67 µM in the test on SF-268 CNS and 1.8 µM in the test with UACC-257 melanoma. Moreover, the TGI in the test with MALME-3M melanoma turned out to be 3.14 µM; in the test with OVCAR-5 ovarian it was 3.04 µM; with SF-268 CNS it was 39.3 µM; in the test with UACC-257 melanoma, 3.62 µM.

As for `CCN(CC)Cc1ccc2cccnc2c1O`, the TGI in the test with COLO 205 colon is 42 µM; with EKVX NSCLC, above 100 µM; in the test with HCC-2998 colon, 59.7 µM; in the test with MALME-3M melanoma, above 100 µM; in the test on NCI-H23 lung, above 100 µM; with OVCAR-5 ovarian, 45.5 µM. The TGI in the test with SF-268 CNS was above 100 µM; in the test on SK-MEL-2 melanoma, 80.1 µM; in the test with TK-10 renal, 33.1 µM; with UACC-257 melanoma, above 100 µM.

As to `Cc1cc(=O)[nH]c(NN2C(Cl)C(=O)C2c2cccc([N+](=O)[O-])c2)n1` (stereo not given), the TGI in the test with COLO 205 colon was 51.6 µM; with EKVX NSCLC it was above 100 µM; in the test with HCC-2998 colon it was 36.8 µM; in the test with NCI-H23 lung, 52.4 µM; in the test with OVCAR-5 ovarian, above 100 µM; in the test on SF-268 CNS it was above 100 µM. The values for the TGI in the test with SK-MEL-2 melanoma, in the test with TK-10 renal and in the test with UACC-257 melanoma were 36.2 µM, above 100 µM and above 100 µM, respectively.

`COc1cc2c(cc1OC)C(Cl)C(c1ccc(Cl)cc1)=C2Cl` (stereo not given): the TGI with COLO 205 colon came to 32.2 µM; with EKVX NSCLC it was 59.7 µM; in the test with MALME-3M melanoma, 56.8 µM; in the test with NCI-H23 lung, 41.1 µM; with SK-MEL-2 melanoma, 36.3 µM; with TK-10 renal, 43.4 µM.

Regarding `C[C@H]1CCC/C=C/[C@@H]2C[C@H](O)C[C@H]2[C@H](O)[C@@H](S(=O)CCN)CC(=O)O1` (stereo not given in full), the GI50 in the test on COLO 205 colon was below 0.0156 µM; in the test with EKVX NSCLC it was 0.0891 µM; with HCC-2998 colon, 0.252 µM; with MALME-3M melanoma, below 0.0138 µM; with NCI-H23 lung, 0.044 µM; with OVCAR-5 ovarian, 0.0479 µM. Moreover, the GI50 in the test with SK-MEL-2 melanoma is 0.111 µM; in the test on TK-10 renal, 0.0851 µM; with UACC-257 melanoma it was below 0.0234 µM. The TGI was 0.0436 µM in the test on COLO 205 colon; above 100 µM in the test on EKVX NSCLC; 22.3 µM in the test on HCC-2998 colon; 0.382 µM in the test on MALME-3M melanoma; 1.74 µM in the test on NCI-H23 lung; above 100 µM in the test on SF-268 CNS. Further, the TGI with TK-10 renal was 4.19 µM; in the test on UACC-257 melanoma, above 100 µM.

On to `c1ccc2c[n+](CCCCCCCCCC[n+]3ccc4ccccc4c3)ccc2c1`, for which the TGI in the test on COLO 205 colon, in the test on EKVX NSCLC, with HCC-2998 colon, with MALME-3M melanoma, with NCI-H23 lung and in the test with OVCAR-5 ovarian was above 10 µM throughout. The TGI in the test on SF-268 CNS, with SK-MEL-2 melanoma, in the test on TK-10 renal and in the test with UACC-257 melanoma was above 10 µM throughout.

With `CC[C@H](Nc1nc(N)nc(N)c1Cl)c1nc2cccc(NCc3ccc(C(=O)NO)cc3)c2c(=O)n1-c1ccccc1`, the GI50 is 2.24 µM in the test on COLO 205 colon; 1.75 µM in the test with EKVX NSCLC; 1.62 µM in the test with HCC-2998 colon; 1.36 µM with MALME-3M melanoma; 1.61 µM in the test on OVCAR-5 ovarian; 1.66 µM in the test with SF-268 CNS. Further, the GI50 in the test on SK-MEL-2 melanoma was 2.02 µM; with TK-10 renal, 2.02 µM; in the test with UACC-257 melanoma it was 1.94 µM. Also, the TGI in the test on COLO 205 colon was 5.73 µM; in the test on EKVX NSCLC, 3.78 µM; in the test on HCC-2998 colon, 3.22 µM; in the test with MALME-3M melanoma, 4.4 µM; in the test on OVCAR-5 ovarian it was 3.36 µM; in the test on SF-268 CNS, 3.69 µM. In addition, the TGI in the test on SK-MEL-2 melanoma is 5.27 µM; in the test on TK-10 renal, 6.63 µM; in the test with UACC-257 melanoma, 4.92 µM.

`O=C(O)c1ccccn1`: the TGI in the test with COLO 205 colon, in the test on EKVX NSCLC, in the test on NCI-H23 lung, in the test with OVCAR-5 ovarian, in the test on SF-268 CNS and with SK-MEL-2 melanoma was above 100 µM throughout. Besides, the TGI with TK-10 renal and in the test on UACC-257 melanoma was above 100 µM throughout.

As to `COc1cnc2c(c1)C(=O)c1c-2n(CCCN2CCNCC2)c(=O)c2cc(Cl)ccc12`, the GI50 with COLO 205 colon is 0.783 µM; in the test on OVCAR-5 ovarian, 1.74 µM; in the test with SF-268 CNS, 1.07 µM; with SK-MEL-2 melanoma, 2.11 µM; with UACC-257 melanoma it was 2.19 µM. For the same molecule, the TGI with COLO 205 colon was found to be 2.41 µM; with OVCAR-5 ovarian, 3.31 µM; in the test with SF-268 CNS, 2.63 µM; in the test with SK-MEL-2 melanoma it was 4.65 µM; with UACC-257 melanoma, 4.82 µM.

Consider `O=C1c2ccccc2C(=O)c2c(NCCNC(=O)C3CCCN3)ccc(NCCNC(=O)C3CCCN3)c21` (stereo not given), for which the TGI in the test with COLO 205 colon, with EKVX NSCLC, in the test with HCC-2998 colon, with MALME-3M melanoma, in the test with NCI-H23 lung and with OVCAR-5 ovarian was above 100 µM throughout. For the same molecule, the TGI in the test on SF-268 CNS, with SK-MEL-2 melanoma, in the test on TK-10 renal and in the test on UACC-257 melanoma was above 100 µM throughout.

With `CN(C)CCNC(=O)c1cccc2nc3c4ccccc4c4ccccc4c3nc12`, the TGI with COLO 205 colon was 19.3 µM; in the test on EKVX NSCLC, 11 µM; in the test on HCC-2998 colon, 11.5 µM; in the test on MALME-3M melanoma, 3.6 µM; in the test with NCI-H23 lung, 3.41 µM; with OVCAR-5 ovarian, 14.2 µM. The TGI in the test on SF-268 CNS came out at 0.632 µM; with SK-MEL-2 melanoma, 8.24 µM; in the test with TK-10 renal it was 9.86 µM; in the test on UACC-257 melanoma, 10.6 µM.

As to `CN(C)[C@@H]1C(=O)C(C(=O)NCNCCCC(=O)O)=C(O)[C@@]2(O)C(=O)C3=C(O)c4c(O)cccc4[C@@](C)(O)[C@H]3C[C@@H]12`, the TGI with COLO 205 colon, in the test on EKVX NSCLC, with HCC-2998 colon, in the test on NCI-H23 lung, in the test with OVCAR-5 ovarian and with SF-268 CNS was above 100 µM each time. Also, the TGI in the test with SK-MEL-2 melanoma, in the test with TK-10 renal and with UACC-257 melanoma was above 100 µM throughout.
